Source: patent US11000033B2, “Ketone or oxime compound, and herbicide” (NISSAN CHEMICAL CORPORATION, priority 2014, dated 2021)

How the values were obtained:
Format in all cases: in vivo
[1] = system: directly sowed rice plant; test: Test Example 3: effect on crop by foliage application, Wagner pot (symbol b); conditions: application herbicide amount 320 g/ha
How it was run: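 Alluvial soil in a 1/10000-are Wagner pot was flooded to a water depth of 0.1–0.5 cm. Echinochloa crus-galli var. crus-galli, Leptochloa chinensis, Cyperus difformis and rice were sown into it and grown in a greenhouse at 25–30 °C.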

Abutilon theophrasti = test: Test Example 4: herbicidal effect by soil treatment (symbol M); conditions: 320 g/ha
How it was run: (§1)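 Seeds were sown in sterilized diluvial soil, covered with about 1.5 cm of soil, and the soil surface was sprayed with a water-diluted emulsion of the compound at a predetermined rate. Plants grew in a greenhouse at 25° C. to 30° C.; effects were scored visually 3 weeks after application.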

Avena fatua = test: Test Example 5: herbicidal effect by foliage application, plastic box (symbol I); conditions: 320 g/ha, 3 weeks after application
How it was run: (§2)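 Seeds were sown in sterilized diluvial soil, covered with about 1.5 cm of soil and grown 14 days in a greenhouse at 25° C. to 30° C. An emulsifiable formulation diluted in water to a set rate was sprayed over foliage, and injury was scored 3 weeks later.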

Veronica persica = test: Test Example 4: herbicidal effect by soil treatment (symbol R); conditions: 320 g/ha
How it was run: as §1

Setaria viridis = test: Test Example 4: herbicidal effect by soil treatment (symbol G); conditions: 320 g/ha
How it was run: as §1

transplanted rice plant = test: Test Example 1: effect on crop, application before weed generation in submerged conditions (symbol a); conditions: application herbicide amount 320 g/ha
How it was run: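 Alluvial soil pots flooded to 4 cm water, sown with Echinochloa oryzacola, Scirpus juncoides and Monochoria vaginalis, then transplanted with 2.5 leaf stage rice seedlings; pre-emergence application. Greenhouse 25° C. to 30° C.; scored 0–5 by herbicidal ratio 3 weeks after application.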

wheat = test: Test Example 5: effect on crop by foliage application, plastic box (symbol e); conditions: 320 g/ha, 3 weeks after application
How it was run: (§3)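 Sterilized diluvial soil, plastic box (21 × 13 × 7 cm); spot sowing, ~1.5 cm soil cover; greenhouse 25–30° C.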

Monochoria vaginalis = test: Test Example 1: herbicidal activity, application before weed generation in submerged conditions (symbol C); conditions: application herbicide amount 320 g/ha
How it was run: (§4)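 Ratings (5: ≥90%, near complete withering; 4: 70–<90%; 3: 40–<70%; 2: 20–<40%; 1: 5–<20%; 0: ≤5%) were assigned 3 weeks after the diluted emulsion was applied to the water surface of freshly sown, submerged pots.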

[2] = system: Echinochloa oryzacola Vasing.; test: Test Example 1: herbicidal activity, application before weed generation in submerged conditions (symbol A); conditions: application herbicide amount 320 g/ha
How it was run: as §4

Lolium multiflorum Lam. = test: Test Example 5: herbicidal effect by foliage application, plastic box (symbol K); conditions: 320 g/ha, 3 weeks after application
How it was run: as §2

Galium spurium [3] = test: Test Example 5: herbicidal effect by foliage application, plastic box (symbol Q); conditions: 320 g/ha, 3 weeks after application
How it was run: as §2

rapeseed = test: Test Example 5: effect on crop by foliage application, plastic box (symbol g); conditions: 320 g/ha, 3 weeks after application
How it was run: as §3

Stellaria media = test: Test Example 4: herbicidal effect by soil treatment (symbol P); conditions: 320 g/ha
How it was run: as §1

Apera spica-venti = test: Test Example 5: herbicidal effect by foliage application, plastic box (symbol L); conditions: 320 g/ha, 3 weeks after application
How it was run: as §2

Galium spurium [4] = test: Test Example 4: herbicidal effect by soil treatment (symbol Q); conditions: 320 g/ha
How it was run: as §1

Scirpus juncoides = test: Test Example 1: herbicidal activity, application before weed generation in submerged conditions (symbol B); conditions: application herbicide amount 320 g/ha
How it was run: as §4

Digitaria ciliaris = test: Test Example 5: herbicidal effect by foliage application, plastic box (symbol F); conditions: 320 g/ha, 3 weeks after application
How it was run: as §2

SMILES: CON=C(C)CC1CC(OC(=O)CSc2ccccc2)=C(c2c(C)cc(C)cc2C)C1=O (centres unmarked) [1-134]
- effect on crop b (directly sowed rice plant), grade 0-5 [1]: 5 (Herbicidal ratio of 90% or more (almost completely withered))
- M: Abutilon theophrasti, herbicidal effect grade (Abutilon theophrasti): 3 (Herbicidal ratio of 40% or higher and lower than 70%)
- I: Avena fatua, herbicidal effect (criteria 0-5) (Avena fatua): 5 (Herbicidal ratio of 90% or more (almost completely withered))
- R: Veronica persica, herbicidal effect grade (Veronica persica): 0 (Herbicidal ratio of 5% or lower (almost no effect))
- G: Setaria viridis, herbicidal effect grade (Setaria viridis): 5 (Herbicidal ratio of 90% or more (almost completely withered))
- Effect grade on crop, a: transplanted rice plant (transplanted rice plant): 5 (Herbicidal ratio of 90% or more (almost completely withered))
- e: wheat, effect on crop (criteria 0-5) (wheat): 5 (Herbicidal ratio of 90% or more (almost completely withered))
- Herbicidal effect grade, C: Monochoria vaginalis (Monochoria vaginalis): 1 (Herbicidal ratio of 5% or higher and lower than 20%)
- Herbicidal effect grade, A: Echinochloa oryzacola Vasing. [2]: 5 (Herbicidal ratio of 90% or more (almost completely withered))
- K: Lolium multiflorum Lam., herbicidal effect (criteria 0-5) (Lolium multiflorum Lam.): 5 (Herbicidal ratio of 90% or more (almost completely withered))
- Q: Galium spurium, herbicidal effect (criteria 0-5) (Galium spurium [3]): 4 (Herbicidal ratio of 70% or higher and lower than 90%)
- g: rapeseed, effect on crop (criteria 0-5) (rapeseed): 4 (Herbicidal ratio of 70% or higher and lower than 90%)
- P: Stellaria media, herbicidal effect grade (Stellaria media): 0 (Herbicidal ratio of 5% or lower (almost no effect))
- L: Apera spica-venti, herbicidal effect (criteria 0-5) (Apera spica-venti): 5 (Herbicidal ratio of 90% or more (almost completely withered))
- Q: Galium spurium, herbicidal effect grade (Galium spurium [4]): 0 (Herbicidal ratio of 5% or lower (almost no effect))
- Herbicidal effect grade, B: Scirpus juncoides (Scirpus juncoides): 5 (Herbicidal ratio of 90% or more (almost completely withered))
- F: Digitaria ciliaris, herbicidal effect (criteria 0-5) (Digitaria ciliaris): 5 (Herbicidal ratio of 90% or more (almost completely withered))

SMILES: CC(CC1CC(O)=C(c2c(C)cc(C)cc2C)C1=O)=NOCC(C)Br (centres unmarked) [1-135]
- effect on crop b (directly sowed rice plant), grade 0-5 [1]: 5 (Herbicidal ratio of 90% or more (almost completely withered))
- M: Abutilon theophrasti, herbicidal effect grade (Abutilon theophrasti): 0 (Herbicidal ratio of 5% or lower (almost no effect))
- I: Avena fatua, herbicidal effect (criteria 0-5) (Avena fatua): 5 (Herbicidal ratio of 90% or more (almost completely withered))
- R: Veronica persica, herbicidal effect grade (Veronica persica): 2 (Herbicidal ratio of 20% or higher and lower than 40%)
- G: Setaria viridis, herbicidal effect grade (Setaria viridis): 5 (Herbicidal ratio of 90% or more (almost completely withered))
- Effect grade on crop, a: transplanted rice plant (transplanted rice plant): 5 (Herbicidal ratio of 90% or more (almost completely withered))
- e: wheat, effect on crop (criteria 0-5) (wheat): 2 (Herbicidal ratio of 20% or higher and lower than 40%)
- Herbicidal effect grade, C: Monochoria vaginalis (Monochoria vaginalis): 1 (Herbicidal ratio of 5% or higher and lower than 20%)
- Herbicidal effect grade, A: Echinochloa oryzacola Vasing. [2]: 5 (Herbicidal ratio of 90% or more (almost completely withered))
- K: Lolium multiflorum Lam., herbicidal effect (criteria 0-5) (Lolium multiflorum Lam.): 5 (Herbicidal ratio of 90% or more (almost completely withered))
- Q: Galium spurium, herbicidal effect (criteria 0-5) (Galium spurium [3]): 0 (Herbicidal ratio of 5% or lower (almost no effect))
- g: rapeseed, effect on crop (criteria 0-5) (rapeseed): 4 (Herbicidal ratio of 70% or higher and lower than 90%)
- P: Stellaria media, herbicidal effect grade (Stellaria media): 0 (Herbicidal ratio of 5% or lower (almost no effect))
- L: Apera spica-venti, herbicidal effect (criteria 0-5) (Apera spica-venti): 5 (Herbicidal ratio of 90% or more (almost completely withered))
- Q: Galium spurium, herbicidal effect grade (Galium spurium [4]): 0 (Herbicidal ratio of 5% or lower (almost no effect))
- Herbicidal effect grade, B: Scirpus juncoides (Scirpus juncoides): 5 (Herbicidal ratio of 90% or more (almost completely withered))
- F: Digitaria ciliaris, herbicidal effect (criteria 0-5) (Digitaria ciliaris): 5 (Herbicidal ratio of 90% or more (almost completely withered))

SMILES: CC(CC1CC(O)=C(c2c(C)cc(C)cc2C)C1=O)=NOCc1ccc(Cl)cc1 (centres unmarked) [1-137]
- effect on crop b (directly sowed rice plant), grade 0-5 [1]: 5 (Herbicidal ratio of 90% or more (almost completely withered))
- M: Abutilon theophrasti, herbicidal effect grade (Abutilon theophrasti): 0 (Herbicidal ratio of 5% or lower (almost no effect))
- I: Avena fatua, herbicidal effect (criteria 0-5) (Avena fatua): 5 (Herbicidal ratio of 90% or more (almost completely withered))
- R: Veronica persica, herbicidal effect grade (Veronica persica): 0 (Herbicidal ratio of 5% or lower (almost no effect))
- G: Setaria viridis, herbicidal effect grade (Setaria viridis): 5 (Herbicidal ratio of 90% or more (almost completely withered))
- Effect grade on crop, a: transplanted rice plant (transplanted rice plant): 5 (Herbicidal ratio of 90% or more (almost completely withered))
- e: wheat, effect on crop (criteria 0-5) (wheat): 3 (Herbicidal ratio of 40% or higher and lower than 70%)
- Herbicidal effect grade, C: Monochoria vaginalis (Monochoria vaginalis): 5 (Herbicidal ratio of 90% or more (almost completely withered))
- Herbicidal effect grade, A: Echinochloa oryzacola Vasing. [2]: 5 (Herbicidal ratio of 90% or more (almost completely withered))
- K: Lolium multiflorum Lam., herbicidal effect (criteria 0-5) (Lolium multiflorum Lam.): 5 (Herbicidal ratio of 90% or more (almost completely withered))
- Q: Galium spurium, herbicidal effect (criteria 0-5) (Galium spurium [3]): 0 (Herbicidal ratio of 5% or lower (almost no effect))
- g: rapeseed, effect on crop (criteria 0-5) (rapeseed): 4 (Herbicidal ratio of 70% or higher and lower than 90%)
- P: Stellaria media, herbicidal effect grade (Stellaria media): 0 (Herbicidal ratio of 5% or lower (almost no effect))
- L: Apera spica-venti, herbicidal effect (criteria 0-5) (Apera spica-venti): 5 (Herbicidal ratio of 90% or more (almost completely withered))
- Q: Galium spurium, herbicidal effect grade (Galium spurium [4]): 0 (Herbicidal ratio of 5% or lower (almost no effect))
- Herbicidal effect grade, B: Scirpus juncoides (Scirpus juncoides): 5 (Herbicidal ratio of 90% or more (almost completely withered))
- F: Digitaria ciliaris, herbicidal effect (criteria 0-5) (Digitaria ciliaris): 5 (Herbicidal ratio of 90% or more (almost completely withered))

SMILES: CC(CC1CC(O)=C(c2c(C)cc(C)cc2C)C1=O)=NOCc1ccc(C(F)(F)F)cc1 (centres unmarked) [1-138]
- effect on crop b (directly sowed rice plant), grade 0-5 [1]: 5 (Herbicidal ratio of 90% or more (almost completely withered))
- M: Abutilon theophrasti, herbicidal effect grade (Abutilon theophrasti): 0 (Herbicidal ratio of 5% or lower (almost no effect))
- I: Avena fatua, herbicidal effect (criteria 0-5) (Avena fatua): 5 (Herbicidal ratio of 90% or more (almost completely withered))
- R: Veronica persica, herbicidal effect grade (Veronica persica): 0 (Herbicidal ratio of 5% or lower (almost no effect))
- G: Setaria viridis, herbicidal effect grade (Setaria viridis): 4 (Herbicidal ratio of 70% or higher and lower than 90%)
- Effect grade on crop, a: transplanted rice plant (transplanted rice plant): 5 (Herbicidal ratio of 90% or more (almost completely withered))
- e: wheat, effect on crop (criteria 0-5) (wheat): 3 (Herbicidal ratio of 40% or higher and lower than 70%)
- Herbicidal effect grade, C: Monochoria vaginalis (Monochoria vaginalis): 5 (Herbicidal ratio of 90% or more (almost completely withered))
- Herbicidal effect grade, A: Echinochloa oryzacola Vasing. [2]: 5 (Herbicidal ratio of 90% or more (almost completely withered))
- K: Lolium multiflorum Lam., herbicidal effect (criteria 0-5) (Lolium multiflorum Lam.): 5 (Herbicidal ratio of 90% or more (almost completely withered))
- Q: Galium spurium, herbicidal effect (criteria 0-5) (Galium spurium [3]): 3 (Herbicidal ratio of 40% or higher and lower than 70%)
- g: rapeseed, effect on crop (criteria 0-5) (rapeseed): 4 (Herbicidal ratio of 70% or higher and lower than 90%)
- P: Stellaria media, herbicidal effect grade (Stellaria media): 0 (Herbicidal ratio of 5% or lower (almost no effect))
- L: Apera spica-venti, herbicidal effect (criteria 0-5) (Apera spica-venti): 5 (Herbicidal ratio of 90% or more (almost completely withered))
- Q: Galium spurium, herbicidal effect grade (Galium spurium [4]): 0 (Herbicidal ratio of 5% or lower (almost no effect))
- Herbicidal effect grade, B: Scirpus juncoides (Scirpus juncoides): 5 (Herbicidal ratio of 90% or more (almost completely withered))
- F: Digitaria ciliaris, herbicidal effect (criteria 0-5) (Digitaria ciliaris): 5 (Herbicidal ratio of 90% or more (almost completely withered))
